# Counter-ions that a name gives are not always drawn. Like-named read-outs stand apart in the source and are kept apart here.
# Tested on: XBP1s-luc 293 LUC
# Test: cellular PD assay, XBP1s-LUC reporter (Example 903)
# Assay type: cell-based
# Settings: read-out: XBP1s-luc 293 LUC (IC50)
# In short: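 A luciferase fusion, in frame and expressed only when the XBP1 transcript is spliced, served as the readout of cellular IRE1α activity in an XBP1-Luc reporter line.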
Compound,IC50 (Table 2),IC50 (Table 1)
"CCC(F)(F)CS(=O)(=O)Nc1c(F)ccc2c(Oc3ncccc3-c3ccnc(N[C@@H]4CNC[C@@H](F)C4)n3)c(C)ccc12 (single isomer, unassigned) [Example 496, hydrochloride]",17.9 nM,
"Cc1ccc2c(NS(=O)(=O)CCC(C)(F)F)c(F)ccc2c1Oc1ncccc1-c1ccnc(N[C@H]2CNC[C@H](F)C2)n1 (single isomer, unassigned) [Example 497, hydrochloride]",5100 nM,
"Cc1ccc2c(NS(=O)(=O)CCC(C)(F)F)c(F)ccc2c1Oc1ncccc1-c1ccnc(N[C@@H]2CNC[C@@H](F)C2)n1 (single isomer, unassigned) [Example 498, hydrochloride]",33 nM,
"Cc1ccc2c(NS(=O)(=O)N(C)CC(F)(F)F)c(F)ccc2c1Oc1ncccc1-c1ccnc(N[C@H]2CNC[C@H](F)C2)n1 (single isomer, unassigned) [Example 499, hydrochloride]",680 nM,
"Cc1ccc2c(NS(=O)(=O)N(C)CC(F)(F)F)c(F)ccc2c1Oc1ncccc1-c1ccnc(N[C@@H]2CNC[C@@H](F)C2)n1 (single isomer, unassigned) [Example 500, hydrochloride]",8.7 nM,
"Cc1ccc2c(NC(=O)c3cccc(C(C)(C)C#N)c3)cccc2c1Oc1ncccc1-c1ccnc(N[C@H]2CCCNC2)n1 [Example 101, (S)-3-(2-Cyanopropan-2-yl)-N-(6-methyl-5-((3-(2-(piperidin-3-ylamino)pyrimidin-4-yl)pyridin-2-yl)oxy)naphthalen-1-yl)benzamide]",,102 nM
"Cc1ccc2c(NS(=O)(=O)Cc3ccccc3Cl)c(F)ccc2c1Oc1ncccc1-c1ccnc(N[C@H]2CCCNC2)n1 [Example 102, (S)-1-(2-Chlorophenyl)-N-(2-fluoro-6-methyl-5-((3-(2-(piperidin-3-ylamino)pyrimidin-4-yl)pyridin-2-yl)oxy)naphthalen-1-yl)methanesulfonamide]",,4.6 nM
"CCS(=O)(=O)Nc1cccc2c(Oc3ncccc3-c3ccnc(N[C@H]4CCCNC4)n3)c(C)ccc12 [Example 103, (S)—N-(6-Methyl-5-((3-(2-(piperidin-3-ylamino)pyrimidin-4-yl)pyridin-2-yl)oxy)naphthalen-1-yl)ethanesulfonamide]",,255 nM
"CCCS(=O)(=O)Nc1cccc2c(Oc3ncccc3-c3ccnc(N[C@H]4CCCNC4)n3)c(C)ccc12 [Example 104, (S)—N-(6-Methyl-5-(3-(2-(piperidin-3-ylamino)pyrimidin-4-yl)pyridin-2-yloxy)naphthalen-1-yl)propane-1-sulfonamide hydrochloride]",,131 nM
"Cc1ccc2c(NS(=O)(=O)C3CC3)cccc2c1Oc1ncccc1-c1ccnc(N[C@H]2CCCNC2)n1 [Example 105, (S)—N-(6-Methyl-5-((3-(2-(piperidin-3-ylamino)pyrimidin-4-yl)pyridin-2-yl)oxy)naphthalen-1-yl)cyclopropanesulfonamide hydrochloride]",,493 nM
"Cc1ccc2c(NS(=O)(=O)C(C)C)cccc2c1Oc1ncccc1-c1ccnc(N[C@H]2CCCNC2)n1 [Example 106, (S)—N-(6-Methyl-5-((3-(2-(piperidin-3-ylamino)pyrimidin-4-yl)pyridin-2-yl)oxy)naphthalen-1-yl) methylethylsulfonamide hydrochloride]",,349 nM
"Cc1ccc2c(NS(=O)(=O)C3CCC3)cccc2c1Oc1ncccc1-c1ccnc(N[C@H]2CCCNC2)n1 [Example 107, (S)—N-(6-Methyl-5-((3-(2-(piperidin-3-ylamino)pyrimidin-4-yl)pyridin-2-yl)oxy)naphthalen-1-yl)cyclobutanesulfonamide hydrochloride]",,252 nM
"Cc1ccc2c(NS(=O)(=O)N3CCCC3)cccc2c1Oc1ncccc1-c1ccnc(N[C@H]2CCCNC2)n1 [Example 108, (S)—N-(6-Methyl-5-((3-(2-(piperidin-3-ylamino)pyrimidin-4-yl)pyridin-2-yl)oxy)naphthalen-1-yl)pyrrolidine-1-sulfonamide hydrochloride]",,298 nM
"Cc1ccc2c(NS(=O)(=O)N(C)C)cccc2c1Oc1ncccc1-c1ccnc(N[C@H]2CCCNC2)n1 [Example 109, 4-[2-[[5-(Dimethylsulfamoylamino)-2-methyl-1-naphthyl]oxy]-3-pyridyl]-2-[[(3S)-3-piperidyl]amino]pyrimidine hydrochloride]",,222 nM
"Cc1cc(NS(=O)(=O)Cc2ccccc2)c2ccccc2c1Oc1ncccc1-c1ccnc(N[C@H]2CC[C@H](N)CC2)n1 [Example 110, N-(4-((3-(2-(((1r,4r)-4-aminocyclohexyl)amino)pyrimidin-4-yl)pyridin-2-yl)oxy)-3-methylnaphthalen-1-yl)-1-phenylmethanesulfonamide hydrochloride]",,119 nM
"Cc1cc(NS(=O)(=O)C2CCC2)c2ccccc2c1Oc1ncccc1-c1ccnc(N[C@H]2CC[C@H](N)CC2)n1 [Example 111, N-(4-((3-(2-(((trans)-4-Aminocyclohexyl)amino)pyrimidin-4-yl)pyridin-2-yl)oxy)-3-methylnaphthalen-1-yl)cyclobutanesulfonamide hydrochloride]",,447 nM
"Cc1ccc2c(NS(=O)(=O)Cc3ccccc3)cccc2c1Oc1ncccc1-c1ccnc(N[C@H]2CCCNC2)n1 [Example 112, (S)—N-(6-Methyl-5-((3-(2-(piperidin-3-ylamino)pyrimidin-4-yl)pyridin-2-yl)oxy)naphthalen-1-yl)-1-phenylmethanesulfonamide hydrochloride]",,21 nM
"CCN(C)S(=O)(=O)Nc1cccc2c(Oc3ncccc3-c3ccnc(N[C@H]4CCCNC4)n3)c(C)ccc12 [Example 113, 4-[2-[[5-[[Ethyl(methyl)sulfamoyl]amino]-2-methyl-1-naphthyl]oxy]-3-pyridyl]-2-[[(3S)-3-piperidyl]amino]pyrimidine hydrochloride]",,343 nM
"Cc1ccc2c(NS(=O)(=O)N3CCCCC3)cccc2c1Oc1ncccc1-c1ccnc(N[C@H]2CCCNC2)n1 [Example 114, (S)—N-(6-Methyl-5-((3-(2-(piperidin-3-ylamino)pyrimidin-4-yl)pyridin-2-yl)oxy)naphthalen-1-yl)piperidine-1-sulfonamide hydrochloride]",,382 nM
"Cc1ccc2c(NC(=O)c3ccccc3)cccc2c1Oc1ncccc1-c1ccnc(N[C@H]2CCCNC2)n1 [Example 115, (S)—N-(6-Methyl-5-((3-(2-(piperidin-3-ylamino)pyrimidin-4-yl)pyridin-2-yl)oxy)naphthalen-1-yl)benzamide hydrochloride]",,262 nM
"Cc1ccc2c(NC(=O)N3CCCCC3)cccc2c1Oc1ncccc1-c1ccnc(N[C@H]2CCCNC2)n1 [Example 116, (S)—N-(6-Methyl-5-((3-(2-(piperidin-3-ylamino)pyrimidin-4-yl)pyridin-2-yl)oxy)naphthalen-1-yl)piperidine-1-carboxamide hydrochloride]",,430 nM
"CCCC(=O)Nc1cccc2c(Oc3ncccc3-c3ccnc(N[C@H]4CCCNC4)n3)c(C)ccc12 [Example 117, (S)—N-(6-Methyl-5-((3-(2-(piperidin-3-ylamino)pyrimidin-4-yl)pyridin-2-yl)oxy)naphthalen-1-yl)butyramide hydrochloride]",,145 nM
"Cc1ccc2c(NS(=O)(=O)CCCF)cccc2c1Oc1ncccc1-c1ccnc(N[C@H]2CCCNC2)n1 [Example 118, (S)-3-Fluoro-N-(6-methyl-5-((3-(2-(piperidin-3-ylamino)pyrimidin-4-yl)pyridin-2-yl)oxy)naphthalen-1-yl)propane-1-sulfonamide hydrochloride]",,323 nM
"Cc1cc(NS(=O)(=O)C2CCCC2)c2ccccc2c1Oc1ncccc1-c1ccnc(N[C@H]2CC[C@H](N)CC2)n1 [Example 119, N-(4-((3-(2-(((trans)-4-aminocyclohexyl)amino)pyrimidin-4-yl)pyridin-2-yl)oxy)-3-methylnaphthalen-1-yl)cyclopentanesulfonamide hydrochloride]",,312 nM
"Cc1ccc2c(NS(=O)(=O)C3CCCC3)cccc2c1Oc1ncccc1-c1ccnc(N[C@H]2CCCNC2)n1 [Example 120, (S)—N-(6-Methyl-5-((3-(2-(piperidin-3-ylamino)pyrimidin-4-yl)pyridin-2-yl)oxy)naphthalen-1-yl)cyclopentanesulfonamide hydrochloride]",,180 nM
"Cc1ccc2c(NS(=O)(=O)CC(C)C)cccc2c1Oc1ncccc1-c1ccnc(N[C@H]2CCCNC2)n1 [Example 121, (S)-2-Methyl-N-(6-methyl-5-((3-(2-(piperidin-3-ylamino)pyrimidin-4-yl)pyridin-2-yl)oxy)naphthalen-1-yl)propane-1-sulfonamide hydrochloride]",,103 nM
"Cc1ccc2c(NS(=O)(=O)CC(F)(F)F)cccc2c1Oc1ncccc1-c1ccnc(N[C@H]2CCCNC2)n1 [Example 122, (S)-2,2,2-Trifluoro-N-(6-methyl-5-((3-(2-(piperidin-3-ylamino)pyrimidin-4-yl)pyridin-2-yl)oxy)naphthalen-1-yl)ethane-1-sulfonamide hydrochloride]",,105 nM
"Cc1ccc2c(NS(=O)(=O)CCC(F)(F)F)cccc2c1Oc1ncccc1-c1ccnc(N[C@H]2CCCNC2)n1 [Example 123, (S)-3,3,3-Trifluoro-N-(6-methyl-5-((3-(2-(piperidin-3-ylamino)pyrimidin-4-yl)pyridin-2-yl)oxy)naphthalen-1-yl)propane-1-sulfonamide hydrochloride]",,84 nM
"Cc1ccc2c(NS(=O)(=O)CC3CC3)cccc2c1Oc1ncccc1-c1ccnc(N[C@H]2CCCNC2)n1 [Example 124, (S)-1-Cyclopropyl-N-(6-methyl-5-((3-(2-(piperidin-3-ylamino)pyrimidin-4-yl)pyridin-2-yl)oxy)naphthalen-1-yl)methanesulfonamide hydrochloride]",,105 nM
"Cc1ccc2c(NS(=O)(=O)Cc3cccnc3)cccc2c1Oc1ncccc1-c1ccnc(N[C@H]2CCCNC2)n1 [Example 125, (S)—N-(6-Methyl-5-((3-(2-(piperidin-3-ylamino)pyrimidin-4-yl)pyridin-2-yl)oxy)naphthalen-1-yl)-1-(pyridin-3-yl)methanesulfonamide hydrochloride]",,318 nM

# From patent US10968203B2, “Pyrimidinyl-pyridyloxy-naphthyl compounds and methods of treating IRE1-related diseases and disorders” (Genentech, Inc., priority 2017, dated 2021)
